Test [1] addresses T1, human serotonin transporters (Homo sapiens, UniProt P31645).
T1 construct: expressed in transfected cells
In words: Serotonin Transporter Binding Assay ([3H]-citalopram displacement, HEK-hSERT cell membranes). The settings on record: HEK-hSERT membranes, 1 nM [3H]-citalopram, 1 hr at 25° C.; read-out: SERT (binding Ki). The protocol:
HEK-293 cells that stably express human serotonin transporters (HEK-hSERT cells) were grown at 37° C. in 5% CO2 as a monolayer in medium consisting of EMEM supplemented with 10% fetal bovine serum and G418 sulfate (500 μg/mL). To prepare membranes for radioligand binding experiments, cells were rinsed twice with phosphate-buffered saline (138 mM NaCl, 4.1 mM KCl, 5.1 mM Na2PO4, 1.5 mM […], 11.1 mM glucose, pH 7.4). Cells were transferred from plates to polypropylene tubes (16×100 mm), centrifuged at 1,200×g for 5 min and were frozen at −80° C. until assay. Following centrifugation, pellets were resuspended by homogenization in buffer consisting of 50 mM Tris (pH 7.7 at 25° C.), 120 mM NaCl and 5 mM KCl and then centrifuged at 32,000×g for 10 min. Following centrifugation, supernatants were discarded and pellets were resuspended in buffer consisting of 50 mM Tris (pH 7.4 at 25° C.), 150 mM NaCl and 5 mM KCl. Membrane homogenates (200 μl/plate) were incubated with 1 nM [^3H]-citalopram (specific activity=85 Ci/mMol) and increasing concentrations of test compounds for 1 hr at 25° C. in a total volume of 250 μl. The assay buffer consisted of 50 mM Tris (pH 7.4 at 25° C.), 120 mM NaCl and 5 mM KCl (pH 7.4 with conc. HCl). Plates were incubated for 1 hr at 25° C., then filtered through 0.5% PEI treated Whatman GF/B filters using a Brandel cell harvester. Filters were washed three times with 3 mL of ice-cold tris wash buffer. Non-specific binding was defined with 10 μM fluoxetine. Amount of radioligand bound in the presence and absence of competitor was analyzed by plotting (−)log drug concentration versus the amount of radioligand specifically bound. The midpoint of the displacement curve (IC50, nM), signifies the potency. Ki values were calculated using the method of Cheng and Prusoff (1973).

Test [2] addresses T2, human norepinephrine transporters (Homo sapiens, UniProt P23975).
T2 construct: host or cells: MDCK cells (also 'HEK-hNET cells'), membrane homogenates
Nature of the test: Norepinephrine Transporter Binding Assay ([3H]-nisoxetine displacement, hNET cell membranes). The settings on record: 2.7 nM [3H]-nisoxetine, 1 hr at 4° C., read-out: NE Reuptake (binding Ki). The protocol:
MDCK cells that stably express human norepinephrine transporters (HEK-hNET cells) were supplied by Receptor Biology, Inc. Pellets were resuspended by homogenization in buffer consisting of 50 mM Tris (pH 7.4 at 25° C.), 120 mM NaCl and 5 mM KCl. Membrane homogenates (200 μl/well, 8 ug protein) were incubated with 2.7 nM [^3H]-nisoxetine (specific activity=80 Ci/mMol) and increasing concentrations of test compounds for 1 hr at 4° C. in a total volume of 250 μl. The assay buffer consisted of 50 mM Tris (pH 7.4 at 25° C.), 120 mM NaCl and 5 mM KCl (pH 7.4 with conc. HCl). Plates were incubated for 1 hr at 4° C., then filtered through 0.5% PEI treated Whatman GF/B filters using a Brandel cell harvester. Filters were washed three times with 3 mL of ice-cold tris wash buffer. Non-specific binding was defined with 10 μM desipramine. Amount of radioligand bound in the presence and absence of competitor was analyzed by plotting (−)log drug concentration versus the amount of radioligand specifically bound. The midpoint of the displacement curve (IC50, nM), signifies the potency. Ki values were calculated using the method of Cheng and Prusoff (1973).

The Ki is a measure of affinity in units of concentration, obtained from inhibition or displacement.

T1 sequence (P31645 whole entry): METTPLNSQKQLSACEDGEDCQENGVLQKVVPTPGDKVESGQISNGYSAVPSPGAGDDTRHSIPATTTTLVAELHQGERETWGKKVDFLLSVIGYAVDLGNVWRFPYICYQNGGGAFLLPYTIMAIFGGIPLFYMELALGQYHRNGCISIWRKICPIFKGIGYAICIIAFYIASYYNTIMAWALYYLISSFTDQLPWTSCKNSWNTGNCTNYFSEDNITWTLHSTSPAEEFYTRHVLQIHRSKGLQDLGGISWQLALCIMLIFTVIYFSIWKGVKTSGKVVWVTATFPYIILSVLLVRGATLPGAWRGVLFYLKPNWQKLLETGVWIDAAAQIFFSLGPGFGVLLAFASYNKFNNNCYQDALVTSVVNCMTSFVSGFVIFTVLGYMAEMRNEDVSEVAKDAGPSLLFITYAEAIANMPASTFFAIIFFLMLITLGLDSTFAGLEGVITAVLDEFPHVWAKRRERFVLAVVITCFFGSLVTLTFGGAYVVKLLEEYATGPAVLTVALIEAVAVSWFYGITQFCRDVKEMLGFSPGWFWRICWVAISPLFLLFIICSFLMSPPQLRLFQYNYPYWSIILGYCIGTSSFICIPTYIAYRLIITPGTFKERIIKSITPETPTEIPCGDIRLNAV
T2 sequence (P23975 whole entry): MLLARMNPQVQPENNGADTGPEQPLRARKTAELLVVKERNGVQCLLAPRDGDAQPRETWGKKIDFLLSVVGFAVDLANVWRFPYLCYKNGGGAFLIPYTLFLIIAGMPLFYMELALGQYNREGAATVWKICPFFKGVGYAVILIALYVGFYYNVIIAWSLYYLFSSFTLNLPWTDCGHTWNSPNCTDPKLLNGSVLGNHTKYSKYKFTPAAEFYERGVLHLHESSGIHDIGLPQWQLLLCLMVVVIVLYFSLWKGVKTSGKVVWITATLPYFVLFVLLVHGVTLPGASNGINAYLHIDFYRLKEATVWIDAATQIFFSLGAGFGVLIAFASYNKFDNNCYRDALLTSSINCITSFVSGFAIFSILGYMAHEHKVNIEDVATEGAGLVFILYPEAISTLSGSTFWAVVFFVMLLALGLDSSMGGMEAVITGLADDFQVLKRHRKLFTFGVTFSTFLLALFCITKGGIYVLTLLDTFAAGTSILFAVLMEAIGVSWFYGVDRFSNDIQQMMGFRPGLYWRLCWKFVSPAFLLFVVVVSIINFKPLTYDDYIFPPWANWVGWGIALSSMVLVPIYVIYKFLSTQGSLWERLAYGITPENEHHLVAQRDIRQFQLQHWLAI

As for `CN(C)[C@@H]1CC[C@H](c2c[nH]c3ccc(C#N)cc23)C1` [Compound 48, (1S,3R)-3-(3-dimethylaminocyclopentyl)-1H-indole-5-carbonitrile], the inhibition constant (Ki) in test [1] is below 1 nM; in test [2], above 1000 nM.

`CN(C)[C@H]1CC[C@H](c2c[nH]c3ccc(C#N)cc23)C1` [Compound 49, (1S,3S)-3-(3-dimethylaminocyclopentyl)-1H-indole-5-carbonitrile]: the Ki in test [1] is below 1 nM; in test [2], above 1000 nM.

For the molecule `CN(C)[C@H]1CC[C@@H](c2c[nH]c3ccc(C#N)cc23)C1` [Compound 50, (1R,3S)-3-(3-dimethylaminocyclopentyl)-1H-indole-5-carbonitrile], the results for the Ki in test [1] and in test [2] were below 1 nM and above 1000 nM, respectively.

Take `CN(C)[C@@H]1CC[C@@H](c2c[nH]c3ccc(C#N)cc23)C1` [Compound 51, (1R,3R)-3-(3-dimethylaminocyclopentyl)-1H-indole-5-carbonitrile]: the Ki was below 1 nM in test [1] and above 1000 nM in test [2].

Consider `CN(C)[C@H]1CC[C@H](c2c[nH]c3ccc(F)cc23)C1` [Compound 52, (1S,3S)-3-(5-fluoro-1H-indol-3-yl)-cyclopentyl-dimethylamine], for which the Ki in test [1] was 1 to 10 nM; in test [2], above 1000 nM.

As to `CN(C)[C@@H]1CC[C@H](c2c[nH]c3ccc(F)cc23)C1` [Compound 53, (1R,3S)-3-(5-fluoro-1H-indol-3-yl)-cyclopentyl-dimethylamine], the Ki is below 1 nM in test [1] and above 1000 nM in test [2].

In the case of `CN(C)[C@@H]1CC[C@@H](c2c[nH]c3ccc(F)cc23)C1` [Compound 54, (1R,3R)-3-(5-fluoro-1H-indol-3-yl)-cyclopentyl-dimethylamine], the values for the Ki in test [1] and in test [2] were 1 to 10 nM and above 1000 nM, respectively.

As for `CN(C)[C@H]1CC[C@@H](c2c[nH]c3ccc(F)cc23)C1` [Compound 55, (1S,3R)-3-(5-fluoro-1H-indol-3-yl)-cyclopentyl-dimethylamine], the inhibition constant Ki is 1 to 10 nM in test [1] and above 1000 nM in test [2].

With `CCn1cc([C@H]2CC[C@@H](N(C)C)C2)c2cc(C#N)ccc21` [Compound 56, (1S,3R)-3-(3-Dimethylamino-cyclopentyl)-1-ethyl-1H-indole-5-carbonitrile], the Ki in test [1] is below 1 nM; in test [2] it was above 1000 nM.

On to `CCn1cc([C@H]2CC[C@H](N(C)C)C2)c2cc(C#N)ccc21` [Compound 57, (1S,3S)-3-(3-Dimethylamino-cyclopentyl)-1-ethyl-1H-indole-5-carbonitrile], for which the Ki in test [1] is 1 to 10 nM; in test [2], above 1000 nM.

Consider `CCn1cc([C@@H]2CC[C@H](N(C)C)C2)c2cc(C#N)ccc21` [Compound 58, (1R,3S)-3-(3-Dimethylamino-cyclopentyl)-1-ethyl-1H-indole-5-carbonitrile], for which the Ki in test [1] was below 1 nM; in test [2], above 1000 nM.

`CCn1cc([C@@H]2CC[C@@H](N(C)C)C2)c2cc(C#N)ccc21` [Compound 59, (1R,3R)-3-(3-Dimethylamino-cyclopentyl)-1-ethyl-1H-indole-5-carbonitrile]: the results for the Ki in test [1] and in test [2] were 1 to 10 nM and above 1000 nM, respectively.
